# Measurements: patent publication US7759356B2, “Arylindenopyridines and arylindenopyrimidines and related therapeutic and prophylactic methods” (Janssen Pharmaceutica, N.V., priority 2002, dated 2010)
# Assays:
# [1] = biological target: T1, human A2a adenosine receptor (Homo sapiens, UniProt P29274); experiment: Ligand binding assay for adenosine A2a receptor ([3H]CGS21680, HEK293 membranes); details: radioligand [3H]CGS21680, HEK293 plasma membrane
# T1 construct: purchased PerkinElmer RB-HA2a; host or cells: HEK293 cell plasma membranes
# T1 sequence (P29274 whole entry): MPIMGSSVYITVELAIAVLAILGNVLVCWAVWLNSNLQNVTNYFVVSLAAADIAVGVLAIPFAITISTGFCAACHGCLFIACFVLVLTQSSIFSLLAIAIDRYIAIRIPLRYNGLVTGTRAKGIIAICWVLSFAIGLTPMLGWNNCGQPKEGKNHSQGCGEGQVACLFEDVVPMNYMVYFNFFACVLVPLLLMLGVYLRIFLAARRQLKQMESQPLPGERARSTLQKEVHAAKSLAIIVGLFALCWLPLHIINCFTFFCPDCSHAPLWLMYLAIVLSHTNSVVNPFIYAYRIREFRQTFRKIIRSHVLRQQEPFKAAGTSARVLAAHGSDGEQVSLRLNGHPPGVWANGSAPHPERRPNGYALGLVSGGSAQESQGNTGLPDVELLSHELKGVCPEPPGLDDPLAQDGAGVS
# Procedure: Ligand Binding Assay for Adenosine A2a Receptor
# Ligand binding assay of adenosine A2a receptor was performed using plasma membrane of HEK293 cells containing human A2a adenosine receptor (PerkinElmer, RB-HA2a) and radioligand [^3H]CGS21680 (PerkinElmer, NET1021). Assay was set up in 96-well polypropylene plate in total volume of 200 μL by sequentially adding 20 μL1:20 diluted membrane, 130 μL assay buffer (50 mM Tris.HCl, pH7.4 10 mM MgCl2, 1 mM EDTA) containing [^3H] […] Nonspecific binding was determined by […] NECA. Reaction was carried out at room temperature for 2 hours before filtering through 96-well GF/C filter plate pre-soaked in 50 mM Tris.HCl, pH7.4 containing 0.3% polyethylenimine. Plates were then washed 5 times with cold 50 mM Tris.HCl, pH7.4, dried and sealed at the bottom. Microscintillation fluid 30 μl was added to each well and the top sealed. Plates were counted on Packard Topcount for [^3H]. Data was analyzed in Microsoft Excel and GraphPad Prism programs.
# [2] = biological target: T2, human adenosine A2a receptors (Homo sapiens, UniProt P29274); experiment: Adenosine A2a receptor functional assay (antagonist mode, cAMP-inducible beta-galactosidase reporter, CHO-K1 cells, 50 nM NECA); assay type: cell-based; details: read-out: Ki A2a antagonist function
# T2 construct: expressed in transfected cells; host or cells: CHO-K1 cells with cAMP-inducible beta-galactosidase reporter gene
# T2 sequence (P29274 whole entry): as above
# Procedure: Adenosine A2a Receptor Functional Assay
# CHO—K1 cells overexpressing human adenosine A2a receptors and containing cAMP-inducible beta-galactosidase reporter gene were seeded at 40-50K/well into 96-well tissue culture plates and cultured for two days. On assay day, cells were washed once with 200 μL assay medium (F-12 nutrient mixture/0.1% BSA). For agonist assay, adenosine A2a receptor agonist NECA was subsequently added and cell incubated at 37° C., 5% CO2 for 5 hrs before stopping reaction. In the case of antagonist assay, cells were incubated with antagonists for 5 minutes at R.T. followed by addition of 50 nM NECA. Cells were then incubated at 37° C., 5% CO2 for 5 hrs before stopping experiments by washing cells with PBS twice. 50 μL 1× lysis buffer (Promega, 5× stock solution, needs to be diluted to 1× before use) was added to each well and plates frozen at −20° C. For β-galactosidase enzyme colorimetric assay, plates were thawed out at room temperature and 50 μL 2× assay buffer (Promega) added to each well. Color was allowed to develop at 37° C. for 1 h or until reasonable signal appeared. Reaction was then stopped with 150 μL 1M sodium carbonate. […] Data was analyzed in Microsoft Excel and GraphPad Prism programs.
# [3] = biological target: T3, A1 (Homo sapiens, UniProt P30542); experiment: A1 antagonist function; assay type: cell-based
# T3 sequence (P30542 1-326): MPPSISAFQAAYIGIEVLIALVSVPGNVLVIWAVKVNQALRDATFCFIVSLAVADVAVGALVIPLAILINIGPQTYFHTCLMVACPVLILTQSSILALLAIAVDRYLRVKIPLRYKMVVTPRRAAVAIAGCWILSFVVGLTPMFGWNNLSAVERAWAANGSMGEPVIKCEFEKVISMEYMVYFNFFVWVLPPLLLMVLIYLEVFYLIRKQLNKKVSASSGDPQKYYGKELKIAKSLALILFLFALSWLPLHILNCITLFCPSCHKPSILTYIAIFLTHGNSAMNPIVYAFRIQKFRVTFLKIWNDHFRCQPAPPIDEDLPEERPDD
Ki [1] [nM],Ki [2] [nM],Ki [3] [nM],Structure (SMILES)
30.6,11.7,61,Nc1nc(-c2ccccc2)c2c(n1)-c1cccc(CN3CCN(CCO)CC3)c1C2=O [Compound 58]
48.5,10.1,52.5,C[C@@H](CN(C)C)OC(=O)c1c(N)nc(-c2ccco2)c2c1-c1ccccc1C2=O [Compound 96]
–,–,> 500,"CN(C)CCN(C)C(=O)c1c(N)nc(-c2ccco2)c2c1-c1ccccc1C2=O [Compound 77, 9H-indeno[2,1-c]pyridine-4-carboxylic acid, 3-amino-1-furan-2-yl-9-oxo-, (2-dimethylamino-ethyl)-methyl-amide]"
64,–,–,CN(C)CCOC(=O)c1c(N)nc(-c2ccsc2)c2c1-c1ccccc1C2=O [Compound 93]
–,–,> 500,"CC(CN(C)C)NC(=O)c1c(N)nc(-c2ccco2)c2c1-c1ccccc1C2=O (stereo not drawn) [Compound 78, 9H-indeno[2,1-c]pyridine-4-carboxylic acid, 3-amino-1-furan-2-yl-9-oxo-, (2-dimethylamino-1-methyl-ethyl)-amide]"
80.2,–,–,CN1CCN(Cc2cccc3c2C(=O)c2c(-c4ccccc4)nc(N)nc2-3)CC1 [Compound 50]

# Continued, compound first:
Structure (SMILES),Ki [1] [nM],Ki [2] [nM],Ki [3] [nM]
CC(O)C(O)c1cccc2c1-c1nc(N)nc(-c3ccccc3)c1C2=O (stereo not drawn) [Compound 33],0.175,0.34,0.021
Nc1nc(-c2ccco2)c2c(n1)-c1cccc(N)c1C2=O [Compound 20],0.05,0.126,0.91
COc1ccc(-c2nc(N)nc3c2C(=O)c2ccccc2-3)cn1 [Compound 30],31.6,–,–
"CS(=O)(=O)c1nc(N)nc2c1C(=O)c1ccccc1-2 [Compound 40, 2-Amino-4-methanesulfonyl-indeno[1,2-d]pyrimidin-5-one]",2720,–,–
